# According to PMC10835127, “Viruses traverse the human proteome through peptide interfaces that can be biomimetically leveraged for drug discovery” (Proceedings of the National Academy of Sciences of the …, 2024):
# Tests used:
# [1] = system: diet-induced obese model of NASH; assay: NASH mouse model (AMLN diet-induced obese); format: in vivo, C57BL/6JRj mice; conditions: oral, 8 wk
# Description: Fig. 6. Effect of the lead compound in a diet-induced obese model of NASH. Mice fed with a high fat, high fructose, and cholesterol supplemented diet for 38 wk were then treated in the last 8 wk with vehicle, dEF3122, or OCA (obeticholic acid) at indicated concentrations (n = 12 animals per group). (A and B) Histopathological mean score changes between the beginning and end of the treatment for liver portal inflammation (A) and liver portal fibrosis (B) are shown with representative stained liver sections of hematoxylin and eosin (H&E) and picrosirius red stains, respectively. (C–E) (C) Areas of kidney fibrosis at the end of the treatment are shown as % of the total area of the selected fields with representative sections of the kidney stained with picrosirius red. (D) % CD3 and (E) % F4/80 positive areas in kidneys with representative sections of CD3 and F4/80 immunostainings. *P < 0.05, **P < 0.01, and ***P < 0.001 from the T test with a preliminary nonsignificant Shapiro–Wilk test or from Wilcoxon signed–rank test otherwise.
# Five-week-old male C57BL/6JRj mice were fed either chow diet or AMLN diet (40% total fat kcal of which 18.5% were trans-fat kcal, 20% fructose, and 2% cholesterol). This diet was maintained for 30 wk prior to study initiation. Three weeks prior to study initiation, liver biopsies were taken, and animals with steatosis grade <2 and fibrosis stage <1 were excluded from the study. Prior to the first administration of the test compound, stratified randomization of mice into treatment groups was performed according to collagen 1a1 (IHC) morphometry from the week 3 biopsies. Each treatment group consisted of 12 mice. For a total of 8 wk, compound dEF3122 was administered orally, twice daily at a concentration of 7 mg/kg or 20 mg/kg. OCA was administered orally, once daily at a concentration of 7 mg/kg. Animals were killed at the end of the treatment, and livers and kidneys were collected. […]
# NASH histopathology and immunochemistry
# Livers were fixed in 10 % neutral buffered formalin and paraffin-embedded; and sections were stained with H&E and picrosirius red to analyze their morphology. Histopathological analysis was performed by a pathologist blinded to the study. Fibrosis was evaluated by quantification of the picrosirius red positive areas. Inflammation was graded by counting the H&E positive inflammatory foci per field.
# Kidneys were fixed in 4 % PFA and paraffin embedded. 4-μm sections were stained with picrosirius red. Images were acquired using a digital slide scanner (Nanozoomer S210 Digital Slide Scanner, Hamamatsu). Renal lesions were blindly examined by a renal pathologist. The extent of interstitial fibrosis was quantified using Image J software (NIH) on Sirius red scanned colored sections. In short, at least 20 random selected fields (original magnification, ×200) across the kidney cortex were analyzed per each kidney section, and the results were expressed as percentages of the total area of the selected fields.
# For immunohistochemistry, 4-µm sections of paraffin-embedded kidneys were submitted for appropriate antigen retrieval by high pressure heating in a solution of Tris EDTA Tween or in a citrate solution. Then, sections were then incubated overnight at 4°C with the following antibodies: rabbit monoclonal anti-CD3 (Abcam, 1:100) and rat monoclonal anti- F4/80 (Biorad, 1:100). After washing, sections were incubated with appropriate amplification secondary antibody: biotin-coupled anti-rabbit (GE Healthcare) for CD3 and biotin-coupled anti-rat (Vector Laboratories) for F4/80, and then incubated with streptavidin coupled HRP (Southern). At the end, DAB (DAKO) staining was used to detect HRP. For quantification of CD3+ and F4/80+ renal cells, the degrees of cellular infiltrate were automatically quantified using ImageJ software (NIH) and expressed as a percentage of the surface area of the positive staining per field, in at least 10 random fields perp
# [2] = Cryopreserved hepatocyte stability, mouse; format: in vitro ADME; conditions: cryopreserved hepatocytes, murine hepatocytes, read-out: CLint mHep
# Description: Cryopreserved hepatocyte stability
# Tested compounds (1 μM) were incubated with human cryopreserved hepatocytes (pool of 5) (IVT Celsis) and mouse cryopreserved hepatocytes (IVT Celsis). Hepatocytes (1, 0.5 or 0.25 x10^6 cells/mL, Williams’ Medium E (WME) with 4 mM L-glutamine and 2 mM magnesium sulphate) containing tested compound (final substrate concentration 1 μM; final DMSO concentration 0.25 %) were preincubated at 37 °C. The final incubation volume was 500 μl. 3 species-specific control compounds were included with each species. At 7 time points (0, 10, 20, 40, 60, 90, and 120 min), reactions were stopped by transferring 50 μl of the incubation mixture into 0.5 μM carbamazepine in cold acetonitrile. Tested compound concentrations were analyzed by LC-MS/MS and the resulting data were used to determine the half-life and intrinsic clearance of the compound in each species. […]
# [3] = system: influenza A H1N1 virus; assay: microbe, parasite or virus in culture; conditions: H1N1, A549, read-out: Neuraminidase activity assay IC50
# [4] = Kinetic solubility; format: physicochemical; conditions: PBS pH 7.4 buffer, pH 7.4, aqueous buffer, kinetic from dmso stock
# Description: 10 mM DMSO Stock solutions of tested compounds were distributed into filtration plate (Multiscreen Durapore 0.45µm) containing PBS pH 7.4 buffer to a final maximum concentration of 130 μM (1.3 % DMSO/buffer). Solutions or suspensions were shaken for 30 min at room temperature. The samples were filtered under vacuum into a collection plate and diluted 50 % with ACN for UV analysis. Quantification was performed against a Reference plate containing the same tested compounds fully solubilized in ACN/PBS buffer 1:1. Reference and Sample plates were analyzed by UPLC/UV-MS using a generic UPLC method. […]
# [5] = dEF3122 twice daily 7 or 20 mg/kg, OCA once daily 7 mg/kg, vs vehicle
structure (smiles),measurement,setting,value
O=C(Nc1scc(C2CCc3ccccc3C2)c1C(=O)O)c1ccccc1 (centres unmarked) [dEF3122],kidney interstitial lymphocytes infiltration (CD3),[1]; twice daily 7 or 20 mg/kg,attenuated interstitial lymphocytes infiltration
same,kidney macrophages infiltration (F4/80),[1]; twice daily 7 or 20 mg/kg,but not macrophages infiltration
same,kidney fibrosis,"[1]; twice daily 7 or 20 mg/kg, picrosirius red",dramatically reduced fibrosis
same,liver portal fibrosis,[1]; [5],resolved portal inflammation and fibrosis
same,liver portal inflammation,[1]; [5],resolved portal inflammation
same,hepatocyte CLint at 1 µM,[2],< 5 µL/min/1e6 cells
same,IC50,[3],3 nM
same,solubility kinetic at 30 min,[4],< 5 µM
